This note sets out measurements from ChEMBL document CHEMBL4483862, “Open-source discovery of chemical leads for next-generation chemoprotective antimalarials” (2018).

The subject of this experiment is Plasmodium berghei. The experiment is described as follows: Luciferase/luciferin-expressing antifolate-resistant parasites were used to infect a culture of HepG2 cells that were pre-incubated with compounds. Infected hepatocytes emit light due to the luciferase reaction. Assay results are presented as the percent inhibition of light emission compared to control. […]. The experiment is classed as functional. The note with it: sporozoite; for IC90: read-out: LUCIFERASE INFECTION ASSAY - IC90.

As usually defined, the IC50 is the point on the concentration scale where inhibition reaches its midpoint. What is called IC90 is the concentration needed for an effect of 90%. `CN(C)Cc1nc(O)c2c(n1)-c1ccccc1CC2(C)C`: the IC90 came out at 4.32 µM. Also, the IC50 (PBLUC_HILL_SLOPE 13.2, PBLUC_R_SQUARED 0.272, read-out: LUCIFERASE INFECTION ASSAY - IC50) was found to be 3.66 µM.
On to `CCOCc1c(C(=O)NC2=C(C(=O)OCC)C(CC)=Nc3ccccc3N2)oc2ccccc12`, for which the 90% effect concentration (IC90) came to 8.81 µM. For the same compound, the IC50 (PBLUC_HILL_SLOPE 13.2, PBLUC_R_SQUARED 0.167, read-out: LUCIFERASE INFECTION ASSAY - IC50) came to 7.46 µM.
In the case of `O=C(Nc1ccccc1)Nc1cccc(C(F)(F)F)c1`, the IC90 was found to be 4.4 µM. Moreover, the concentration for half-maximal inhibition (IC50) (PBLUC_HILL_SLOPE 13.3, PBLUC_R_SQUARED 0.408, read-out: LUCIFERASE INFECTION ASSAY - IC50) amounted to 3.73 µM.
For `CC(=O)c1cc2c(N)c(-c3nc(C(C)(C)C)no3)sc2nc1C`, the IC90 amounted to 3.91 µM. Further, the IC50 (PBLUC_HILL_SLOPE 13.1, PBLUC_R_SQUARED 0.312, read-out: LUCIFERASE INFECTION ASSAY - IC50) worked out at 3.31 µM.
Consider `Cc1cc2nc3n(c2cc1C)C1(Nc2ccccc2-3)C(=O)Nc2ccccc21` (configuration not stated), for which the 90% effect concentration (IC90) is 3.6 µM. For the same compound, the IC50 (PBLUC_HILL_SLOPE 13.5, PBLUC_R_SQUARED 0.192, read-out: LUCIFERASE INFECTION ASSAY - IC50) worked out at 3.06 µM.
In the case of `CC(=O)c1cnc2sc(C(=O)OC3CCCCC3)c(C)c2c1`, the 90% effect concentration (IC90) was 3.88 µM. In addition, for the setting “PBLUC_HILL_SLOPE 13.1, PBLUC_R_SQUARED 0.209, read-out: LUCIFERASE INFECTION ASSAY - IC50”, the IC50 worked out at 3.28 µM.
`CS(=O)(=O)Nc1cccc(-c2cn3c(-c4cccc(OC(F)(F)F)c4)cnc3cn2)c1`: the IC90 was > 7.36 µM. The concentration for half-maximal inhibition (IC50) (PBLUC_HILL_SLOPE 13.3, PBLUC_R_SQUARED 0.233, read-out: LUCIFERASE INFECTION ASSAY - IC50) was 7.15 µM.
Regarding `CC(C)Cc1ccc(C(Nc2ccc3nnnn3n2)C(C)C)cc1` (configuration not stated), the IC90 stood at 3.82 µM. For the same compound, for the setting “PBLUC_HILL_SLOPE 13.1, PBLUC_R_SQUARED 0.631, read-out: LUCIFERASE INFECTION ASSAY - IC50”, the IC50 turned out to be 3.23 µM.
`O=C(CSCCc1nc(-c2ccc(Cl)cc2)cs1)N/N=C/c1ccccc1`: the IC90 worked out at 3.43 µM. The IC50 (PBLUC_HILL_SLOPE 13.2, PBLUC_R_SQUARED 0.406, read-out: LUCIFERASE INFECTION ASSAY - IC50) is 2.9 µM.
In the case of `CNC(=O)c1ccc(CN(Cc2ccc(SC)cc2)Cc2ccco2)cc1`, the IC90 turned out to be 0.736 µM. Also, the IC50 (PBLUC_HILL_SLOPE 13.4, PBLUC_R_SQUARED 0.501, read-out: LUCIFERASE INFECTION ASSAY - IC50) was 0.624 µM.
Turning to `c1coc(CC2CCCC2Nc2c3ccccc3nc3ccccc23)c1` (configuration not stated), the IC90 came to 1.22 µM. Moreover, under “PBLUC_HILL_SLOPE 13.4, PBLUC_R_SQUARED 0.585, read-out: LUCIFERASE INFECTION ASSAY - IC50”, the IC50 turned out to be 1.04 µM.
As to `O=C(Cc1ccc(-c2ccccc2)cc1)Nc1nc(-c2ccccn2)cs1`, the 90% effect concentration (IC90) was > 10 µM. In addition, the half-inhibitory concentration (IC50) (PBLUC_HILL_SLOPE 13.5, PBLUC_R_SQUARED 0.18, read-out: LUCIFERASE INFECTION ASSAY - IC50) is 9.2 µM.
On to `Cc1ccc(C(C)CCN2CCC3(CC2)C(=O)N(CCCc2ccncc2)C(=O)N3CCC(C)C)o1` (configuration not stated), for which the concentration for an effect of 90% (IC90) was > 6.67 µM. The IC50 (PBLUC_HILL_SLOPE 13.4, PBLUC_R_SQUARED 0.376, read-out: LUCIFERASE INFECTION ASSAY - IC50) was determined as 6.51 µM.
For `CCC(C)NC(=O)c1c(NC(=O)c2ccccc2)nc2ccc(C)cn12` (configuration not stated), the IC90 was > 9.42 µM. The IC50 (PBLUC_HILL_SLOPE 13.5, PBLUC_R_SQUARED 0.225, read-out: LUCIFERASE INFECTION ASSAY - IC50) was determined as 8.13 µM.
`Cc1cc(C)cc(NC(=O)C(NCC(C(C)C)N2CCOCC2)c2ccccc2)c1` (configuration not stated): the 90% effect concentration (IC90) is > 10 µM. Also, the half-inhibitory concentration (IC50) (PBLUC_HILL_SLOPE 13.4, 2.47, PBLUC_R_SQUARED 0.208, 0.834, read-out: LUCIFERASE INFECTION ASSAY - IC50) was 6.61 µM.
Take `O=C(Nc1nc2ccccn2c1C(=O)NC1CCCCC1)c1ccc(F)c(F)c1`: the 90% effect concentration (IC90) was > 8.28 µM. Under “PBLUC_HILL_SLOPE 13.4, PBLUC_R_SQUARED 0.0564, read-out: LUCIFERASE INFECTION ASSAY - IC50”, the concentration for half-maximal inhibition (IC50) was 7.37 µM.
On to `Cc1cccc(C2CC(=O)Nc3[nH]c(-c4ccccc4)nc(=O)c32)c1` (configuration not stated), for which the concentration for an effect of 90% (IC90) was > 9.96 µM. Further, the half-inhibitory concentration (IC50) (PBLUC_HILL_SLOPE 13.4, PBLUC_R_SQUARED 0.0843, read-out: LUCIFERASE INFECTION ASSAY - IC50) was 9.49 µM.
With `Cc1onc(-c2ccccc2)c1-c1ccnn1C(=O)Nc1cccc(C(F)(F)F)c1`, the 90% effect concentration (IC90) was > 8 µM. Besides, the IC50 (PBLUC_HILL_SLOPE 13.1, PBLUC_R_SQUARED 0.207, read-out: LUCIFERASE INFECTION ASSAY - IC50) was found to be 7.19 µM.
As for `O=C(Oc1ccc(/C=N/Nc2nc3ccccc3s2)c(OC(=O)c2ccco2)c1)c1ccco1`, the IC90 was > 10 µM. Besides, for the setting “PBLUC_HILL_SLOPE 13.1, PBLUC_R_SQUARED 0.411, read-out: LUCIFERASE INFECTION ASSAY - IC50”, the IC50 was found to be 9.2 µM.
As to `CO/N=C/NC(=O)/C(C#N)=C/N(C)C`, the 90% effect concentration (IC90) is > 16.8 µM. For the same compound, the IC50 (PBLUC_HILL_SLOPE 13.3, PBLUC_R_SQUARED 0.155, read-out: LUCIFERASE INFECTION ASSAY - IC50) was determined as 14.6 µM.
`COc1cc(OC)cc(C(=O)Nc2nc3ccccn3c2C(=O)NC2CCCC2)c1`: the concentration for an effect of 90% (IC90) turned out to be 3.15 µM. In addition, for the setting “PBLUC_HILL_SLOPE 13.4, PBLUC_R_SQUARED 0.275, read-out: LUCIFERASE INFECTION ASSAY - IC50”, the concentration for half-maximal inhibition (IC50) was determined as 2.68 µM.
In the case of `O=C(NCCSCc1ccc(Cl)cc1Cl)c1ccc(Cl)cc1`, the 90% effect concentration (IC90) is > 8.81 µM. Moreover, where the note is “PBLUC_HILL_SLOPE 13.4, PBLUC_R_SQUARED 0.244, read-out: LUCIFERASE INFECTION ASSAY - IC50”, the IC50 came to 7.79 µM.
Turning to `CCCNC(=O)C(C)NC(=O)Nc1c(C)cccc1CC` (configuration not stated), the IC90 is > 10 µM. Further, where the note is “PBLUC_HILL_SLOPE 13.4, PBLUC_R_SQUARED 0.0478, read-out: LUCIFERASE INFECTION ASSAY - IC50”, the IC50 was > 10 µM.
On to `C=CCn1c2ccccc2n2nc(C)c(C(=O)/C=C/c3ccccn3)c12`, for which the IC90 turned out to be 4.04 µM. Where the note is “PBLUC_HILL_SLOPE 13.1, PBLUC_R_SQUARED 0.157, read-out: LUCIFERASE INFECTION ASSAY - IC50”, the IC50 amounted to 3.42 µM.
With `CCC(C)(C)C1CCC2(CC1)NC(N)=Nc1nc3ccccc3n12` (configuration not stated), the IC90 is 3.31 µM. Besides, the IC50 (PBLUC_HILL_SLOPE 13.4, PBLUC_R_SQUARED 0.322, read-out: LUCIFERASE INFECTION ASSAY - IC50) turned out to be 2.81 µM.
Turning to `CN(C)C(=O)CNC(=O)c1cc(-c2ccccc2)nc2c1cnn2Cc1ccccc1Cl`, the 90% effect concentration (IC90) is > 10 µM. Moreover, the IC50 (PBLUC_HILL_SLOPE 13.5, PBLUC_R_SQUARED 0.27, read-out: LUCIFERASE INFECTION ASSAY - IC50) came out at 8.61 µM.
For `COc1ccc(C(N)c2csc(NC(=O)Nc3ccccc3C(C)C)n2)cc1` (configuration not stated), the IC90 was 3.02 µM. Also, the half-maximal inhibitory concentration (IC50) (PBLUC_HILL_SLOPE 13.4, PBLUC_R_SQUARED 0.332, read-out: LUCIFERASE INFECTION ASSAY - IC50) was determined as 2.57 µM.
`OC(COc1ccccc1F)CN1CCN(Cc2csc3ccccc23)CC1` (configuration not stated): the IC90 was > 10 µM. Under “PBLUC_HILL_SLOPE 13.5, PBLUC_R_SQUARED 0.264, read-out: LUCIFERASE INFECTION ASSAY - IC50”, the half-maximal inhibitory concentration (IC50) was > 10 µM.
`CC(C)Sc1nnc(CSc2nc3ccccc3s2)n1C`: the 90% effect concentration (IC90) was determined as 3.94 µM. The IC50 (PBLUC_HILL_SLOPE 13.4, PBLUC_R_SQUARED 0.563, read-out: LUCIFERASE INFECTION ASSAY - IC50) is 3.35 µM.
In the case of `CN(C)S(=O)(=O)c1cccc(COC(=O)C2(c3ccc(F)cc3)CCCC2)c1`, the concentration for an effect of 90% (IC90) is > 10 µM. The concentration for half-maximal inhibition (IC50) (PBLUC_HILL_SLOPE 13, PBLUC_R_SQUARED 0.517, read-out: LUCIFERASE INFECTION ASSAY - IC50) stood at 8.83 µM.
With `COCCCn1c(Sc2ncc(Br)cc2[N+](=O)[O-])nnc1-c1ccc(C(C)(C)C)cc1`, the IC90 is > 6.52 µM. Also, under “PBLUC_HILL_SLOPE 13.2, PBLUC_R_SQUARED 0.0327, read-out: LUCIFERASE INFECTION ASSAY - IC50”, the IC50 was > 6.52 µM.
In the case of `Cc1cc(C(=O)CN(C)Cc2nc(=O)c3ccccc3[nH]2)c(C)n1Cc1ccc(F)cc1`, the IC90 is > 10 µM. Moreover, the IC50 (PBLUC_HILL_SLOPE 13.1, PBLUC_R_SQUARED 0.161, read-out: LUCIFERASE INFECTION ASSAY - IC50) turned out to be 8.98 µM.
For the compound `Cc1cc2c(cc1C)C(NC(C)c1ccccc1)=NC(C)(C)C2` (configuration not stated), the IC90 was found to be 4.29 µM. Also, the IC50 (PBLUC_HILL_SLOPE 13.3, PBLUC_R_SQUARED 0.718, read-out: LUCIFERASE INFECTION ASSAY - IC50) worked out at 3.64 µM.
As for `O=c1cc(CSc2nc3ccccc3s2)[nH]c2nc3ccccc3n12`, the concentration for an effect of 90% (IC90) amounted to 3.5 µM. Further, the IC50 (PBLUC_HILL_SLOPE 13.4, PBLUC_R_SQUARED 0.218, read-out: LUCIFERASE INFECTION ASSAY - IC50) was 2.97 µM.
For the compound `COc1ccc(S(=O)(=O)N2CCc3ccccc32)cc1C(=O)Oc1c(Cl)cc(Cl)c2ccc(C)nc12`, the 90% effect concentration (IC90) was > 10 µM. Besides, the IC50 (PBLUC_HILL_SLOPE 13.5, PBLUC_R_SQUARED 0.253, read-out: LUCIFERASE INFECTION ASSAY - IC50) was > 10 µM.
In the case of `COc1ccc(-c2cnc3cnc(-c4cccs4)cn23)cn1`, the IC90 amounted to 4.6 µM. Also, the concentration for half-maximal inhibition (IC50) (PBLUC_HILL_SLOPE 13.2, PBLUC_R_SQUARED 0.556, read-out: LUCIFERASE INFECTION ASSAY - IC50) was 3.89 µM.
